From ChEMBL document CHEMBL1201862, “PubChem BioAssay data set” (2004)
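Cultured in 96-well plates, cells were exposed to test compound for 48 hours across five concentrations. GI50: concentration for 50% inhibition of growth.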 Active and inactive are the calls of the source. Cut-off read from the data, not from the text of the source: active = GI50 up to about 1.1 µM and inactive = higher.

How the values were obtained:
Test in all cases: NCI anticancer screen, dose series, 48 h
SNB-75 = system: SNB-75
OVCAR-4 = system: OVCAR-4
SK-MEL-28 = system: SK-MEL-28
SK-MEL-2 = system: SK-MEL-2
NCI-H522 = system: NCI-H522
HOP-92 = system: HOP-92
SNB-19 = system: SNB-19
SF-268 = system: SF-268
DMS-273 = system: DMS-273
DLD-1 = system: DLD-1
HL-60 = system: HL-60
MOLT-4 = system: MOLT-4
HOP-62 = system: HOP-62
CCRF-CEM = system: CCRF-CEM
COLO 205 = system: COLO 205
LOX IMVI = system: LOX IMVI
K562 = system: K562
RPMI-8226 = system: RPMI-8226
KM12 = system: KM12
A549 = system: A549
SK-OV-3 = system: SK-OV-3
M14 = system: M14
OVCAR-3 = system: OVCAR-3
LXFL 529 = system: LXFL 529
SW-620 = system: SW-620
OVCAR-5 = system: OVCAR-5
SNB-78 = system: SNB-78
OVCAR-8 = system: OVCAR-8
SF-295 = system: SF-295
KM-20L2 = system: KM-20L2
IGROV-1 = system: IGROV-1
XF498 = system: XF498
HT-29 = system: HT-29
M19-MEL = system: M19-MEL
A498 = system: A498
UACC-62 = system: UACC-62
HCT-15 = system: HCT-15
U-251 = system: U-251
ACHN = system: ACHN
HCT-116 = system: HCT-116
NCI-H460 = system: NCI-H460
DMS-114 = system: DMS-114
HCC 2998 = system: HCC 2998
NCI-H23 = system: NCI-H23
UO-31 = system: UO-31
UACC-257 = system: UACC-257
RXF 631 = system: RXF 631
SF-539 = system: SF-539
SN12C = system: SN12C
Malme-3M = system: Malme-3M
SK-MEL-5 = system: SK-MEL-5
TK-10 = system: TK-10
EKVX = system: EKVX
786-0 = system: 786-0

## Cc1cc2c(=O)c3ccc(Cl)cc3[nH]c2c(C(N)=O)c1C
SNB-75
  GI50: 35.5 µM (inactive)
OVCAR-4
  GI50: > 100 µM (inactive)
SK-MEL-28
  GI50: > 100 µM (inactive)
SK-MEL-2
  GI50: > 100 µM (inactive)
NCI-H522
  GI50: > 100 µM (inactive)
HOP-92
  GI50: > 100 µM (inactive)
SNB-19
  GI50: > 100 µM (inactive)
SF-268
  GI50: > 100 µM (inactive)
DMS-273
  GI50: > 100 µM (inactive)
DLD-1
  GI50: > 100 µM (inactive)
HL-60
  GI50: > 100 µM (inactive)
MOLT-4
  GI50: > 100 µM (inactive)
HOP-62
  GI50: > 100 µM (inactive)
CCRF-CEM
  GI50: > 100 µM (inactive)
COLO 205
  GI50: > 100 µM (inactive)
LOX IMVI
  GI50: > 100 µM (inactive)
K562
  GI50: 83.2 µM (inactive)
RPMI-8226
  GI50: > 100 µM (inactive)
KM12
  GI50: > 100 µM (inactive)
A549
  GI50: > 100 µM (inactive)
SK-OV-3
  GI50: > 100 µM (inactive)
M14
  GI50: > 100 µM (inactive)
OVCAR-3
  GI50: > 100 µM (inactive)
LXFL 529
  GI50: > 100 µM (inactive)
SW-620
  GI50: > 100 µM (inactive)
OVCAR-5
  GI50: > 100 µM (inactive)
SNB-78
  GI50: > 100 µM (inactive)
OVCAR-8
  GI50: > 100 µM (inactive)
SF-295
  GI50: > 100 µM (inactive)
KM-20L2
  GI50: > 100 µM (inactive)
IGROV-1
  GI50: > 100 µM (inactive)
XF498
  GI50: > 100 µM (inactive)
HT-29
  GI50: > 100 µM (inactive)
M19-MEL
  GI50: > 100 µM (inactive)
A498
  GI50: > 100 µM (inactive)
UACC-62
  GI50: > 100 µM (inactive)
HCT-15
  GI50: > 100 µM
U-251
  GI50: > 100 µM (inactive)
ACHN
  GI50: > 100 µM (inactive)
HCT-116
  GI50: > 100 µM (inactive)
NCI-H460
  GI50: > 100 µM (inactive)
DMS-114
  GI50: > 100 µM (inactive)
HCC 2998
  GI50: > 100 µM (inactive)
NCI-H23
  GI50: > 100 µM (inactive)
UO-31
  GI50: > 100 µM (inactive)
UACC-257
  GI50: > 100 µM (inactive)
RXF 631
  GI50: > 100 µM (inactive)
SF-539
  GI50: > 100 µM (inactive)
SN12C
  GI50: > 100 µM (inactive)
Malme-3M
  GI50: > 100 µM (inactive)
SK-MEL-5
  GI50: > 100 µM (inactive)
TK-10
  GI50: > 100 µM (inactive)
EKVX
  GI50: > 100 µM (inactive)
786-0
  GI50: > 100 µM (inactive)
